The values below are quoted from earlier work in patent publication US6465192B2, “Compounds and methods for the inhibition of protein-protein interactions” (priority 1997, dated 2002).

For data set [1] the following is noted: halogen substitutions of the phenyl ring, SN1.

In the case of `COc1ccc([N+](=O)[O-])c(Br)c1CBr` [R = Br, 2-methoxy-5-nitro-6-bromobenzyl bromide], the Relative reaction rate in data set [1] is 0.006.
For the compound penicillin, the “forward reaction rate with lysine side chains in proteins” value (physiological conditions) is listed as “about 1×10^−5 /M/sec”. Further, the “non-specific covalent bonding rate constant to form stable bonds with amino acid side chains” value (side chains such as those of serine and lysine) is given as “about 8×10^−6 /M/sec”.
`COc1ccc([N+](=O)[O-])c(F)c1CBr` [R = F, 2-methoxy-5-nitro-6-fluorobenzyl bromide]: in data set [1], the Relative reaction rate is recorded as 0.05.
